Experimental data published in US12133523B2, “Anti-freezing composition comprising self-assembly compound” (Korea University Research and Business Foundation, priority 2019, dated 2024).
“Also recorded” adds a separate entry of the source. Residues, ends and D or L forms follow the SMILES beside them. *: point of attachment. Fmoc = O=C(OCC1c2ccccc2-c2ccccc21)*

What was measured:
[1] = Gold nanoparticle (MPA-AuNP) colorimetric freeze/thaw assay for TH and IRI activity; conditions: for aggregation of gold particles after freezing/thawing (absorption peak shift 525 nm to 650 nm): 50 μL of 0.5 mM sample in 350 μL of 300 μM MPA-AuNP, -65 °C 23 min
Description: Thermal hysteresis (TH) as anti-freezing activity was measured in accordance with the method described in Park, J.-I., Lee, J. H., Gwak, Y., Kim, H. J., Jin, E., & Kim, Y.-P. (2013). Frozen assembly of gold nanoparticles for rapid analysis of antifreeze protein activity. Biosensors and Bioelectronics, 41, 752-757, and ice recrystallization inhibition (IRI) activity was measured based on Mitchell, D. E., Congdon, T., Rodger, A., & Gibson, M. I. (2015). Gold Nanoparticle Aggregation as a Probe of Antifreeze (Glyco) Protein-Inspired Ice Recrystallization Inhibition and Identification of New IRI Active Macromolecules. Scientific Reports, 5(1). More specifically, when dispersing AFP in a solution in which gold nanoparticles are dispersed, and freezing the solution then thawing again, if the AFP has good conjugating force with an ice crystal surface, the dispersibility of gold nanoparticles is good to maintain an original color of the solution, whereas if it has weak conjugating force, AFP is precipitated, and when ice crystals are rapidly formed, the solution is subjected to color change.
Gold nanoparticles (Cit-AuNP) stabilized with citric acid were synthesized to prepare mercaptopropionic acid (MPA)-AuNP. 20 mL of a storage solution containing 1 mM HAuCl4·3H2O was added to 50 mL of deionized water (DI water). After the solution was stirred and heated to a boiling point, 30 mM sodium citric acid in 2 mL of deionized water was further added to the solution and heated for 20 minutes. The color of the solution changed from bright yellow to burgundy. […] An average size of MPA-capped AuNP was measured to be about 16.7 nm.
On a microwell plate, 50 μL of a solution containing 0.5 mM sample was added to 350 μL of 300 μM MPA-AuNP solution, respectively. […] To quantitatively confirm the color change before and after freezing, absorption spectra of each mixture were measured with a UH5300 spectrometer before and after freezing. The spectra were measured from 300 nm to 900 nm at a scan speed of 400 nm/min, and aggregation properties (E525/E650) of each mixture were compared. […]

[2] = Ice recrystallization inhibition (IRI) splat assay, MLGS from DFOM images; conditions: for IRI effect: ice recrystallized 30 minutes at -6 °C
Description: In order to more clearly confirm the effect of inhibiting ice crystal growth, ice recrystallization inhibition (IRI) characteristics were analyzed. Analysis of ice recrystallization was performed by reference Mitchell, D. E., Clarkson, G., Fox, D. J., Vipond, R. A., Scott, P., & Gibson, M. I. (2017). Antifreeze Protein Mimetic Metallohelices with Potent Ice Recrystallization Inhibition Activity. Journal of the American Chemical Society, 139(29), 9835-9838 and Budke, C., Heggemann, C., Koch, M., Sewald, N., & Koop, T. (2009). Ice Recrystallization Kinetics in the Presence of Synthetic Antifreeze Glycoprotein Analogues Using the Framework of LSW Theory. The Journal of Physical Chemistry B, 113(9), 2865-2873. More specifically, a 10 μL sample was dropped from a height of 1.5 m onto a surface of a cover glass precooled to −60° C. so as to form a thin film of ice. […] During recrystallization of ice, dark-field optical microscopy (DFOM) images were taken, and ten of the largest ice crystal domains were chosen and a mean value thereof was obtained to evaluate the IRI activity. A mean largest grain size (MLGS) analysis was repeated three times.

[3] = system: mouse embryonic stem cells (mESCs); test: mESC cell viability by CCK-8 assay and crystal violet dye; type: cell-based; conditions: for cell viability with respect to mESC: CCK-8; for toxicity to mESC: 5 to 20 uM, CCK-8 and crystal violet dye
Description: In a 60 mm cell culture dish coated with 0.1% gelatin (Sigma), mouse ES cells were cultured in a medium DMEM (Hyclone), to which 2 mM L-glutamine (Mediatech Inc.), 1% penicillin/streptomycin (Mediatech Inc.), 15% heat-inactivated fetal bovine serum (Hyclone), 20 mM HEPES-pH 7.3 (Cellgro), 0.1 mM MEM non-essential amino acid (Cellgro), 0.1 mM 2-mercaptoethanol (Sigma) and 1000 U/mL LIF (Millipore) are added, in order to prevent differentiation.
Mouse ES cells were seeded by 8×10^4 cells per well in a 96-well plate containing the above various cryopreservation solutions. After 9 hours, CCK-8 reagent was added and fluorescence intensity was measured using an ELISA Reader (TECAN).
[…] Cells were washed with 500 μL of PBS and 500 μL of 4% PFA was added thereto for 15 minutes. The fixed cells were washed twice with 500 μL of PBS and 0.5% crystal violet solution was added thereto for 30 minutes. The stained cells were washed with tap water.

[4] = Critical micellar concentration from emission intensity versus concentration; type: physicochemical
[5] = system: mouse embryonic stem cells (mESCs); test: Cryopreservation activity for mESC (freeze/thaw survival, differentiation); type: cell-based; conditions: sample solution 10% (v/v), FBS 40%, media 50%; -80 °C then liquid nitrogen
Description: 250 μL of trypsinized mouse ES cells, 200 μL of FBS and 50 μL of cryopreservation solution (0.005 μM, 0.01 μM, 0.05 μM, and 0.1 μM) were frozen in a rapid freezer for 2 days, and then stored in an LN2 tank. Thawing was performed in a 37° C. constant temperature water bath. The cell frozen stock mixture was inoculated in 4.5 mL medium of 15 mL tube, and then centrifuged at 1000 rpm for 5 minutes. Cell pellets were added with 1 mL medium and inoculated in a 6-well plate.
A cell storage solution was prepared with a sample solution 10% (v/v), FBS 40% (v/v), and media 50% (v/v) according to the present invention, and frozen at −80° C. using a rapid freezer, then the cells were stored for 2 days, and further stored in a liquid nitrogen tank for 2 days or more. Then, the cells were thawed and used in the experiment. In addition, the cells were cultured by treatment with a leukemia inhibitory factor (LIF) to confirm the differentiation ability of stem cells. All the controls were cultured and differentiated under the same conditions, except that deionized water was added instead of the sample according to the present invention.

[6] = system: sperms; test: Sperm cryopreservation followed by in vitro fertilization and embryo culture; type: cell-based, C57BL/6J mice; conditions: sperms frozen in 3% skim milk containing 10 to 20 μM
Description: To cryopreserve sperms, a modified 18% raffinose pentahydrate/3% skim milk (Difco, Becton Dickinson) solution containing 100 mM L-glutamine or skim milk, to which a cryoprotectant according to the present invention was added, was prepared. A human tubal fluid (HTF) medium was used during the IVF process, and a potassium simplex optimized medium (PSOM) was used while 2-cell embryo was cultured to a blastocyst stage.
A sperm cryopreservation solution dispensed in 60 μL was placed in a 35 mm culture dish and covered with paraffin oil. After male mice were sacrificed with […], a tail of epididymis was removed and divided into pieces, and all fats and blood were removed while observing under a microscope before transferring to the cryopreservation solution. The culture dish was kept at 37° C. for 3 minutes and gently stirred every minute to allow sperms to disperse from the tissues. […]
Frozen sperms were thawed under various conditions, then added to IVF drops containing eggs and incubated at 37° C. […] After 24 hours from fertilization, a fertilization rate was calculated using the total number of 2-cell embryos as a percentage based on the total number of eggs.
After performing IFV, 2-cell embryos were classified into a group to be cultured in the blastocyst stage and a group to be implanted in the oviduct of ICR females. After giving birth, the number of pups was recorded. […]

[7] = Freezing control on food (beef frozen at -20 °C, thawed; SEM, optical microscope, TEM)
Description: In order to determine whether Fmoc-FFT can be used as a cryoprotectant for foods, Fmoc-FFT was added to beef (FIG. 22a), then frozen at −20° C. for one day, thawed at room temperature, and then SEM images were observed (FIGS. 22b and d).
After freezing and thawing, Fmoc-FFT was added to water in order to confirm the beef tissue, frozen at −20° C., then the process of recrystallization of ice was observed under an optical microscope.
Further, in order to confirm the tissue change in more detail, the thawed tissue was rapidly frozen in liquid nitrogen, then cut while maintaining −20° C., and the internal tissue was checked. […] It was observed that, when the Fmoc-FFT was not added, the size of tissue pore was 22±8.6 μm, while it was 5±2.3 μm when adding the same.

Compound: CC(O)C(NC(=O)C(Cc1ccccc1)NC(=O)C(CC1=CN=C2C=CC=CC12)NC(=O)OCC1c2ccccc2-c2ccccc21)C(N)=O (stereo not shown) [Fmoc-WFT]
- aggregation of gold particles after freezing/thawing (absorption peak shift 525 nm to 650 nm) [1]: an aggregation phenomenon was exhibited
- IRI effect [2]: had IRI effects
- cell viability with respect to mESC [3]: significant cell viability

Compound: CC(C)C(NC(=O)C(Cc1ccccc1)NC(=O)C(Cc1ccccc1)NC(=O)OCC1c2ccccc2-c2ccccc21)C(N)=O (stereo not drawn) [Fmoc-FFV] (Fmoc-Phe-Phe-Val-NH2; configuration not given here)
- IRI effect [2]: had the IRI effect
- cell viability with respect to mESC [3]: significant cell viability

Compound: CC(O)C(NC(=O)C(CCC(=O)O)NC(=O)C(Cc1ccccc1)NC(=O)C(CCC(=O)O)NC(=O)C(Cc1ccccc1)NC(=O)OCC1c2ccccc2-c2ccccc21)C(N)=O (stereo not shown) [Fmoc-FEFET] (Fmoc-FEFET-NH2; configuration not given here)
- CMC ([4]; aqueous solution, compared to Fmoc-FFT): 22.8 µM
- solubility ([4]; compared to Fmoc-FFT): improved
- toxicity to mESC [3]: no toxicity
- survival and proliferation of mESC after freezing and thawing [5]: survival and proliferation of mESC was smoothly performed

Compound: C[S+](C)[O-] [DMSO, dimethyl sulfoxide, reference compound]
- toxicity to mESC [3]: high toxicity

Compound: Bovine serum albumin [BSA, reference compound]
- aggregation of MPA-AuNP (color change) after freezing/thawing ([1]; MPA-AuNP + 2 μM BSA or PEG): aggregation did not occur

Compound: NC(=O)C(CO)NC(=O)C(Cc1ccccc1)NC(=O)C(Cc1ccccc1)NC(=O)OCC1c2ccccc2-c2ccccc21 (stereo not drawn) [Fmoc-FFS] (Fmoc-Phe-Phe-Ser-NH2; configuration not given here)
- IRI effect [2]: had the IRI effect
- cell viability with respect to mESC [3]: significant cell viability

Compound: CC(O)C(NC(=O)C(CC1=c2ccccc2=NC1)NC(=O)C(CC1=CN=C2C=CC=CC12)NC(=O)OCC1c2ccccc2-c2ccccc21)C(N)=O (stereo not shown) [Fmoc-WWT]
- aggregation of gold particles after freezing/thawing (absorption peak shift 525 nm to 650 nm) [1]: an aggregation phenomenon was exhibited
- IRI effect [2]: had IRI effects
- cell viability with respect to mESC [3]: significant cell viability
- rate of 2-cell embryo formation [6]: ≥ 77%

Compound: CC(NC(=O)C(Cc1ccccc1)NC(=O)C(Cc1ccccc1)NC(=O)OCC1c2ccccc2-c2ccccc21)C(N)=O (stereo not drawn) [Fmoc-FFA] (Fmoc-Phe-Phe-Ala-NH2; configuration not given here)
- IRI effect [2]: had the IRI effect
- toxicity to mESC [3]: no toxicity
- survival and proliferation of mESC after freezing and thawing [5]: survival and proliferation of mESC was smoothly performed

Compound: CC(O)C(NC(=O)C(Cc1ccccc1)NC(=O)C(Cc1ccccc1)NC(=O)Cc1ccc2ccccc2c1)C(N)=O (stereo not shown) [Naph-FFT]
- IRI effect [2]: had IRI effects
- cell viability with respect to mESC [3]: significant cell viability

Compound: CC(O)C(NC(=O)C(Cc1ccccc1)NC(=O)C(Cc1ccccc1)NC(=O)OCC1c2ccccc2-c2ccccc21)C(N)=O (stereo not drawn) [Fmoc-FFT] (Fmoc-Phe-Phe-Thr-NH2; configuration not given here)
- relative IRI activity ([2]; comparison between materials, MLGS): highest IRI activity
- IRI effect [2]: had the IRI effect
- toxicity to mESC [3]: no toxicity
- survival and proliferation of mESC after freezing and thawing [5]: survival and proliferation of mESC was smoothly performed
- size of tissue pore ([7]; thawed beef tissue refrozen in liquid nitrogen, cut at -20 °C): 5±2.3 μm
- size of recrystallized ice ([7]; versus no Fmoc-FFT added, -20 °C): significantly smaller; also recorded: remarkably smaller

Compound: NC(=O)C(Cc1ccccc1)NC(=O)C(Cc1ccccc1)NC(=O)OCC1c2ccccc2-c2ccccc21 (stereo not drawn) [Fmoc-FF] (Fmoc-Phe-Phe-NH2; configuration not given here)
- critical micellar concentration (CMC) ([4]; aqueous solution): 17 µM
- toxicity to mESC [3]: no toxicity
- survival and proliferation of mESC after freezing and thawing [5]: survival and proliferation of mESC was smoothly performed
